The target of the experiment is T1, human IKK-2 (rhIKK-2 homodimer) (Homo sapiens, UniProt O14920).
T1 construct: FLAG (DYKDDDDKD) (C); made in house; host or cells: insect cells (baculovirus, pFastBac)
T1 sequence (O14920 1-756): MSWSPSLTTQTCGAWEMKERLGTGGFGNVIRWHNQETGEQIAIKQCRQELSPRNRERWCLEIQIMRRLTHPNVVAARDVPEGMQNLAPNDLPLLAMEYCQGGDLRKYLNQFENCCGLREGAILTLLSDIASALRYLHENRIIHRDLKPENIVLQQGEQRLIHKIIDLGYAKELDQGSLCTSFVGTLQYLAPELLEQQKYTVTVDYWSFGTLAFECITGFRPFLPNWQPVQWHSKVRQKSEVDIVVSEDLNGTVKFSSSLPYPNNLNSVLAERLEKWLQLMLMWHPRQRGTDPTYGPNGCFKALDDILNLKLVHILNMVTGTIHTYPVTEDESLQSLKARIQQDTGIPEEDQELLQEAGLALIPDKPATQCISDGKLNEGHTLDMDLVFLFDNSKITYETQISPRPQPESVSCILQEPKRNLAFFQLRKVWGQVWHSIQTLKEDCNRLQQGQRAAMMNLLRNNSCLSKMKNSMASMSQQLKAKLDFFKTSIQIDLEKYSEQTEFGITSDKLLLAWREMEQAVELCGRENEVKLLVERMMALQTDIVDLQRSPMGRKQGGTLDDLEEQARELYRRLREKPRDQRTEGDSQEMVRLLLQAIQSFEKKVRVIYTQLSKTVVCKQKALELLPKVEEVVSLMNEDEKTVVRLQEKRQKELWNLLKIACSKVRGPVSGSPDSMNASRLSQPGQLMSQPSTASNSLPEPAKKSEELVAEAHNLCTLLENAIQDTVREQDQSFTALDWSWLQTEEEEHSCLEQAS
Nature of the experiment: IKK-2 Resin Enzyme Assay (Human IKK-2 Enzyme Assay). It is filed as biochemical. To be noted: human IKK-2, resin enzyme assay; read-out: IC50 (μM) hIKK-2. The method, boiled down:
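C-terminally FLAG-tagged human IKK-2 homodimer, baculovirus-expressed in insect cells and anti-FLAG purified. Reaction mix: 5 μM biotinylated IκBα peptide (Ser32/Ser36 region), 1 μM ATP with [γ-33P]ATP, 2 mM MgCl2, 2 mM MnCl2, 10 mM NaF, 1 mM DTT, 25 mM HEPES pH 7.6. Incubated 30 min at 25 °C; IC50 derived.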

Broadly, the IC50 is the concentration needed to halve the response being measured. For `NC(=O)Nc1cn(-c2ccc(-c3ccc(F)cc3O)cc2)nc1C(N)=O` [Example 98, 4-[(aminocarbonyl)amino]-1-(4′-fluoro-2′-hydroxy-1,1′-biphenyl-4-yl)-1H-pyrazole-3-carboxamide], the IC50 came out at 1.04 µM.

With `NC(=O)Nc1cn(-c2ccc(Br)cc2)nc1C(N)=O` [Example 19, 1-(1-(4-bromophenyl)-3-carbamoyl-1H-pyrazol-4-yl)urea], the IC50 amounted to 0.31 µM.

For the compound `N#CCOc1ccc(F)cc1-c1ccc(-n2cc(NC(N)=O)c(C(N)=O)n2)cc1` [Example 172, 4-[(aminocarbonyl)amino]-1-[2′-(cyanomethoxy)-5′-fluoro-1,1′-biphenyl-4-yl]-1H-pyrazole-3-carboxamide], the IC50 stood at 0.044 µM.

Turning to `NC(=O)Nc1cn(-c2ccc(-c3ccc(-c4nnn[nH]4)cc3)cc2)nc1C(N)=O` [Example 187, 4-[(aminocarbonyl)amino]-1-[4′-(1H-tetrazol-5-yl)-1,1′-biphenyl-4-yl]-1H-pyrazole-3-carboxamide], the IC50 worked out at 0.821 µM.

(Values after US20050197338A1, “Substituted pyrazole urea compounds for the treatment of inflammation” (priority 2003, published 2005).)
